Broadly, the CC50 is the concentration that lowers cell viability or growth by half.

The source made the active and inactive calls. No cut-off for these calls is given here.

This note sets out measurements from ChEMBL document CHEMBL6127111, “First-in-Class Small Molecule Degrader of Pregnane X Receptor Enhances Chemotherapy Efficacy” (J Med Chem, 2024).

In data set [1] the target is T1, von Hippel-Lindau disease tumor suppressor/Nuclear receptor subfamily 1 group I member 2 (Homo sapiens, UniProt O75469+P40337). Nature of the data set: PROTAC activity at N-terminal PXR/VHL in human SNU-C4 HiBiT-PXR KI cell assessed as reduction in PXR protein level incubated for 24 hrs by Western blot analysis. Format: cell-based. For orientation: HiBiT is a short tag that completes a luciferase, so light tracks the accessible tagged protein.
T1 sequence (P40337 whole entry, one chain of several): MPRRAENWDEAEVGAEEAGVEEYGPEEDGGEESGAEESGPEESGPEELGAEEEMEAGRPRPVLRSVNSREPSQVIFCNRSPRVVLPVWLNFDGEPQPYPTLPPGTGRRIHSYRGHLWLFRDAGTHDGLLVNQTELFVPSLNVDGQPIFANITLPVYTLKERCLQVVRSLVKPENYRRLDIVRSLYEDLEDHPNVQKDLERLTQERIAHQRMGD

Data set [2] is described as follows: Cytotoxicity against human SNU-C4 HiBiT-PXR KI cell assessed as cell viability at 30 uM incubated for 24 hrs by celltiter-glo luminescent assay relative to control. The following applies: read-out: Activity. Format: functional.
Data set [3] is described as follows: Cytotoxicity against human SNU-C4 HiBiT-PXR KI cell assessed as cell viability incubated for 24 hrs by celltiter-glo luminescent assay. Format: functional.
Data set [4] in a line: Cytotoxicity against human SNU-C4 HiBiT-PXR KI cell assessed as cell viability incubated for 72 hrs by celltiter-glo luminescent assay. The data set is classed as functional.
The nature of data set [5]: Cytotoxicity against human SNU-C4 HiBiT-PXR KI cell assessed as cell viability at 30 uM incubated for 72 hrs by celltiter-glo luminescent assay relative to control. Particulars: read-out: Activity. The data set is classed as functional.
Data set [6] concerns the target T2, Nuclear receptor subfamily 1 group I member 2 (Homo sapiens, UniProt O75469).
T2 sequence (O75469 whole entry): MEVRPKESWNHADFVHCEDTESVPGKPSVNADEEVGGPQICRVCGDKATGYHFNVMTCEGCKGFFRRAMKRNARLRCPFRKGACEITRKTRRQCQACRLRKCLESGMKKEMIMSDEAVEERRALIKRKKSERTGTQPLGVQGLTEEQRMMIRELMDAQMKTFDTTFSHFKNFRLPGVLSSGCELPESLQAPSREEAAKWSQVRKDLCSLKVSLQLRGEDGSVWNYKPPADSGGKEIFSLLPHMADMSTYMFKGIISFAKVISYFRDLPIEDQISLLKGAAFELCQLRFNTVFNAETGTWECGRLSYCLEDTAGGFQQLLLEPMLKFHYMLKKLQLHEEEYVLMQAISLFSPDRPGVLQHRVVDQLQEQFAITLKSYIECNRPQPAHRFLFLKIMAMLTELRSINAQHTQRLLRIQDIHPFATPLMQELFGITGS
Nature of the data set: Displacement of BODIPY FL-probe from GST-tagged PXR LBD (unknown origin) incubated for 90 mins by TR-FRET assay.

Data set [7] has as its target T1, von Hippel-Lindau disease tumor suppressor/Nuclear receptor subfamily 1 group I member 2. The experiment in a line: PROTAC activity at N-terminal PXR/VHL in human SNU-C4 HiBiT-PXR KI cell assessed as PXR degradation upto 10 uM incubated at 24 hrs by Western blot analysis. Format: cell-based.
Data set [8] shares this target. The experiment in a line: PROTAC activity at […] PXR/VHL in human SNU-C4 HiBiT-PXR KI cell assessed as PXR degradation incubated at 24 hrs by Western blot analysis. The data set is classed as cell-based.
Data set [9] shares this target. Nature of the data set: PROTAC activity at PXR/VHL in human SNU-C4 HiBiT-PXR KI cell assessed as PXR degradation at 1 uM incubated for 8 hrs in presence of methyl (S)-3-(1-(2,5-dimethoxyphenyl)-5-methyl-1H-1,2,3-triazole-4-carboxamido)-4-(hexan-3-yloxy)benzoate by Western blot analysis. Format: cell-based.
Data set [10] has the same target. Nature of the data set: PROTAC activity at PXR/VHL in human SNU-C4 HiBiT-PXR KI cell assessed as PXR degradation at 1 uM incubated for 8 hrs in presence of VH032 by Western blot analysis. The data set is classed as cell-based.
The target is the same in data set [11]. Nature of the data set: PROTAC activity at PXR/VHL in human SNU-C4 HiBiT-PXR KI cell assessed as PXR degradation at 1 uM incubated for 8 hrs in presence of MG132 by Western blot analysis. Format: cell-based.
The target is the same in data set [12]. The experiment in a line: PROTAC activity at PXR/VHL in human SNU-C4 HiBiT-PXR KI cell assessed as PXR degradation at 1 uM incubated for 8 hrs in presence of MLN4924 by Western blot analysis. The data set is classed as cell-based.
Data set [13] deals with von Hippel-Lindau disease tumor suppressor/Nuclear receptor subfamily 1 group I member 3 (Homo sapiens, UniProt Q14994+P40337). Nature of the data set: PROTAC activity at CAR/VHL in HEK293T cells assessed as CAR degradation at 0.001 to 100 uM incubated for 24 hrs. The data set is classed as cell-based. Particulars: dose 0.001-100 µM.
von Hippel-Lindau disease tumor suppressor/Nuclear receptor subfamily 1 group I member 3, sequence (Q14994 whole entry): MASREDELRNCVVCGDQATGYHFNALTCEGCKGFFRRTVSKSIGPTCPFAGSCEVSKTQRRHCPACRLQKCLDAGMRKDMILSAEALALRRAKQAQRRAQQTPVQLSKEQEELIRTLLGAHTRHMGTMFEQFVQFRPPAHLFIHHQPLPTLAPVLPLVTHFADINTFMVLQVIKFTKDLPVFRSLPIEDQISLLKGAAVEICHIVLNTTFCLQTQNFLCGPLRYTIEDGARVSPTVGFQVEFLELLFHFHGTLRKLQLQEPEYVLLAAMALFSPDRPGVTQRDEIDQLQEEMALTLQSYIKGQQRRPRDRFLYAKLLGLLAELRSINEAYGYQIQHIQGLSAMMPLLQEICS
von Hippel-Lindau disease tumor suppressor/Nuclear receptor subfamily 1 group I member 3, sequence (P40337 whole entry): as the sequence (P40337 whole entry, one chain of several) above
Data set [14] concerns the target von Hippel-Lindau disease tumor suppressor/Vitamin D3 receptor (Homo sapiens) (UniProt P11473+P40337). The experiment in a line: PROTAC activity at VDR/VHL in HEK293T cells assessed as VDR degradation at 0.001 to 100 uM incubated for 24 hrs. The following applies: dose 0.001-100 µM. The data set is classed as cell-based.
In data set [15] the target is von Hippel-Lindau disease tumor suppressor/Bile acid receptor (Homo sapiens) (UniProt Q96RI1+P40337). The experiment in a line: PROTAC activity at FXR/VHL in HEK293T cells assessed as FXR degradation at 0.001 to 100 uM incubated for 24 hrs. Format: cell-based. Particulars: dose 0.001-100 µM.
von Hippel-Lindau disease tumor suppressor/Bile acid receptor (Homo sapiens), sequence (P40337 whole entry, looked up): as the sequence (P40337 whole entry, one chain of several) above
von Hippel-Lindau disease tumor suppressor/Bile acid receptor (Homo sapiens), sequence (Q96RI1 whole entry, looked up): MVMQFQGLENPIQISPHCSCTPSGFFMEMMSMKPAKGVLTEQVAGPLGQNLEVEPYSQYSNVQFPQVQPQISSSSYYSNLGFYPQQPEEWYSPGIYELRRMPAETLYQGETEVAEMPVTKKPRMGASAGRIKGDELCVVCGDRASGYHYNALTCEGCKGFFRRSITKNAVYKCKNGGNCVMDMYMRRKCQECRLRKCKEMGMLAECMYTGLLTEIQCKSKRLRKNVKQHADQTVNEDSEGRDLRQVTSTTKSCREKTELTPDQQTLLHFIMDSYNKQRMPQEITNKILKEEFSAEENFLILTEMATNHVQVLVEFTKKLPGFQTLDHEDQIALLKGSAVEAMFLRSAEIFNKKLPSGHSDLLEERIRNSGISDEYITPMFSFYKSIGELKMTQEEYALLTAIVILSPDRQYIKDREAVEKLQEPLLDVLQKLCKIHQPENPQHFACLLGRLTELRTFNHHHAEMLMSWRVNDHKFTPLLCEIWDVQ
The target of data set [16] is von Hippel-Lindau disease tumor suppressor/Oxysterols receptor LXR-alpha (Homo sapiens) (UniProt Q13133+P40337). The experiment in a line: PROTAC activity at LXRalpha/VHL in HEK293T cells assessed as LXRalpha degradation at 0.001 to 100 uM incubated for 24 hrs. Format: cell-based. Particulars: dose 0.001-100 µM.
von Hippel-Lindau disease tumor suppressor/Oxysterols receptor LXR-alpha (Homo sapiens), sequence (P40337 whole entry, looked up): as the sequence (P40337 whole entry, one chain of several) above
von Hippel-Lindau disease tumor suppressor/Oxysterols receptor LXR-alpha (Homo sapiens), sequence (Q13133 whole entry, looked up): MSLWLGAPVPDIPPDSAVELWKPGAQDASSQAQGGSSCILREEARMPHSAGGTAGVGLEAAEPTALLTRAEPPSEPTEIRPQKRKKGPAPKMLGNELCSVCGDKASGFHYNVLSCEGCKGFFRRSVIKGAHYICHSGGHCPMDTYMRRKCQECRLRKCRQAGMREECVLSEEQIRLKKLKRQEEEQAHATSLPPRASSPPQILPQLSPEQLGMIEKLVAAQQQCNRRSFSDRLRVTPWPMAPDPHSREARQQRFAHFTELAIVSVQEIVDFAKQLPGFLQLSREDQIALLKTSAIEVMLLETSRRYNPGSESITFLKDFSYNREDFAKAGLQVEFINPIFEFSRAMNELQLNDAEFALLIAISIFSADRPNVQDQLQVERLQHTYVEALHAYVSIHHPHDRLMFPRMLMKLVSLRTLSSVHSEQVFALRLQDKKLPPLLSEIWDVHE
The target in data set [17] is von Hippel-Lindau disease tumor suppressor/Oxysterols receptor LXR-beta (Homo sapiens) (UniProt P55055+P40337). Nature of the data set: PROTAC activity at LXRbeta/VHL in HEK293T cells assessed as LXRbeta degradation at 0.001 to 100 uM incubated for 24 hrs. Format: cell-based. Particulars: dose 0.001-100 µM.
von Hippel-Lindau disease tumor suppressor/Oxysterols receptor LXR-beta (Homo sapiens), sequence (P40337 whole entry, looked up, the tested form may be a part): as the sequence (P40337 whole entry, one chain of several) above
von Hippel-Lindau disease tumor suppressor/Oxysterols receptor LXR-beta (Homo sapiens), sequence (P55055 whole entry, looked up, the tested form may be a part): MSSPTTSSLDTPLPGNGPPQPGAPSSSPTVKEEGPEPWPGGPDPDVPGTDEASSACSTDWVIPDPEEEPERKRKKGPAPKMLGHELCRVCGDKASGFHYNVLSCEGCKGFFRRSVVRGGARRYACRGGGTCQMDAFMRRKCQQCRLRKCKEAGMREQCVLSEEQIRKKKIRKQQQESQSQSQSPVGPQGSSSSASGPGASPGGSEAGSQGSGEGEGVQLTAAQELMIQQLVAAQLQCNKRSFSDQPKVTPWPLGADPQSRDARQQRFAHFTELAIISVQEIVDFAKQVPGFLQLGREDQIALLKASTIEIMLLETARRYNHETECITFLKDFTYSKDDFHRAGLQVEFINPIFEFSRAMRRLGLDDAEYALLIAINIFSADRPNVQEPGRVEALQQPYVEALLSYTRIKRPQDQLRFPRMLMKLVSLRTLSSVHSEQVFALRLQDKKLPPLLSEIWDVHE
Data set [18] deals with T1, von Hippel-Lindau disease tumor suppressor/Nuclear receptor subfamily 1 group I member 2. Nature of the data set: PROTAC activity at PXR/VHL in human SNU-C4 HiBiT-PXR KI cell assessed as inhibition of LBD-VCB complex formation at 41.2 nM incubated for 24 hrs by TR-FRET assay. The data set is classed as cell-based. The following applies: 0.0412 µM.
The target in data set [19] is T2, Nuclear receptor subfamily 1 group I member 2. Nature of the data set: Inhibition of PXR activation in human HepG2 cells transfected with CYP3A4 incubated for 24 hrs in presence of rifampicin. The data set is classed as cell-based. Particulars: hepg2, 24 h.
The target is the same in data set [20]. Nature of the data set: Inhibition of PXR activation in human HepG2 cells transfected with CYP3A4 incubated for 24 hrs in presence of T0901317. Format: cell-based. Particulars: hepg2, 24 h.
Data set [21] shares this target. The experiment in a line: Inhibition of PXR activation in human HepG2 cells transfected with CYP3A4 incubated for 24 hrs in presence of paclitaxel. The data set is classed as cell-based. The following applies: hepg2, 24 h.
The test system of data set [22] is HepG2. Nature of the data set: Reduction in basal PXR activity on CYP3A4 promoter in human HepG2 cells at 10 uM in absence of PXR agonist. The data set is classed as functional, cell-based.
Data set [23] addresses T2, Nuclear receptor subfamily 1 group I member 2. Nature of the data set: Inhibition of PXR activation in human SNU-C4 cells transfected with CYP3A4 at 10 uM incubated for 24 hrs in presence of paclitaxel. The data set is classed as cell-based. Particulars: snu-c4, 24 h.
The subject of data set [24] is SNU-C4. Nature of the data set: Effect on PXR mRNA level in human SNU-C4 cells at 10 uM incubated for 24 hrs in presence of paclitaxel by RT-qPCR analysis. The data set is classed as functional, cell-based. For orientation: Real-time PCR tracks product formation cycle by cycle.
Data set [25] concerns SNU-C4. Nature of the data set: Cytotoxicity against human SNU-C4 cells assessed as cell viability incubated for 72 hrs in presence of paclitaxel. The data set is classed as functional.

von Hippel-Lindau disease tumor suppressor/Vitamin D3 receptor (Homo sapiens), sequence (P11473 whole entry, looked up): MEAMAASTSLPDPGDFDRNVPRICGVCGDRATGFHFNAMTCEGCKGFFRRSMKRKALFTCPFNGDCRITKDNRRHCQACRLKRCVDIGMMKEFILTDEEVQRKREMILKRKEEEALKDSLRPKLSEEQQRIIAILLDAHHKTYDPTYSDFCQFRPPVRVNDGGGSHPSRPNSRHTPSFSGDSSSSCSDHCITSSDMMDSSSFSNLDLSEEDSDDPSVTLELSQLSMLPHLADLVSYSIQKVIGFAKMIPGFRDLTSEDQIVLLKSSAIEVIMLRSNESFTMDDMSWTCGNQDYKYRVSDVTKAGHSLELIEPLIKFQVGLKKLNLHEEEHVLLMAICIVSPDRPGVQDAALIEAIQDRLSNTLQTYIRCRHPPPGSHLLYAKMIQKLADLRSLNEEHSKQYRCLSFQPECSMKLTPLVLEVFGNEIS
von Hippel-Lindau disease tumor suppressor/Vitamin D3 receptor (Homo sapiens), sequence (P40337 whole entry, looked up): as the sequence (P40337 whole entry, one chain of several) above

As to `CCC[C@H](CC)Oc1ccc(C(=O)OC)cc1NC(=O)c1nnn(-c2cc(OC)ccc2OC)c1C`, in data set [1], the DC50 was above 30 µM. For the same compound, the viability at 30 µM came to 95.6% in data set [2] and 94.9% in data set [5]. The CC50 in [3] and in [4] was above 30 µM each time. The outcome in [6] was Active.
Take `CCC[C@H](CC)Oc1ccc(C(C)(C)C)cc1NC(=O)c1nnn(-c2cc(OC)c(OCCCCCCOCCOCC(=O)N[C@H](C(=O)N3C[C@H](O)C[C@H]3C(=O)NCc3ccc(-c4scnc4C)cc3)C(C)(C)C)cc2OC)c1C`: the viability at 30 µM stood at 97.4% in data set [2] and 99.5% in [5]. Also, the CC50 in [3] and in [4] was above 30 µM throughout. Besides, the Activity entry is reported as “Active” in data set [7]; “Not Active” in data set [9]; “Not Active” in [10]; “Not Active” in data set [11]; “Not Active” in data set [12]; “Not Active” in data set [13]. The DC50 in [8] turned out to be 0.0531 µM. The outcome in [14], in data set [15], in [16] and in data set [17] was inactive.
Turning to `CC(=O)N[C@H](C(=O)N1C[C@@H](O)C[C@H]1C(=O)NCc1ccc(-c2scnc2C)cc1)C(C)(C)C`, the Activity entry in [18] is “Not Active”.
Take `CCC[C@H](CC)Oc1ccc(C(=O)NCCCCCCCCC(=O)N[C@H](C(=O)N2C[C@H](O)C[C@H]2C(=O)NCc2ccc(-c3scnc3C)cc2)C(C)(C)C)cc1NC(=O)c1nnn(-c2cc(OC)ccc2OC)c1C`: in data set [1], the DC50 is above 30 µM. In addition, the viability at 30 µM in data set [2] turned out to be 102%; in [5], 104%. Besides, the CC50 in data set [3] and in [4] was above 30 µM each time.
On to `CCC[C@H](CC)Oc1ccc(C(=O)OC)cc1NC(=O)c1nnn(-c2cc(OC)c(OCCCCCCOCCOCC(=O)N[C@H](C(=O)N3C[C@H](O)C[C@H]3C(=O)NCc3ccc(-c4scnc4C)cc3)C(C)(C)C)cc2OC)c1C`, for which the figures for the viability at 30 µM in data set [2] and in data set [5] were 102% and 105%, respectively. The CC50 is above 30 µM in data set [3], above 30 µM in data set [4] and 9.53 µM in data set [25]. Moreover, the Activity result in data set [7] is on record as “Active”; in data set [9], “Not Active”; in data set [10], “Not Active”; in [11], “Not Active”; in [12], “Not Active”; in data set [13], “Not Active”. Moreover, the “inhibition (INH)” value in data set [19], in data set [20], in [21] and in data set [23] was “Active” throughout. For the same compound, the outcome in data set [22] was Active. In addition, the outcome in data set [24], in data set [14], in data set [15], in [16] and in data set [17] was inactive.
For the compound `CCC[C@H](CC)Oc1ccc(C(C)(C)C)cc1NC(=O)c1nnn(-c2cc(OC)ccc2OC)c1C`, the DC50 in data set [1] is above 30 µM. The viability at 30 µM in [2] worked out at 95.7%; in [5], 98.7%. The CC50 in [3] and in data set [4] was above 30 µM each time.
As for `CCC[C@H](CC)Oc1ccc(C(=O)NCCOCCOCCOCC(=O)N[C@H](C(=O)N2C[C@H](O)C[C@H]2C(=O)NCc2ccc(-c3scnc3C)cc2)C(C)(C)C)cc1NC(=O)c1nnn(-c2cc(OC)ccc2OC)c1C`, in data set [1], the DC50 was above 30 µM. Moreover, the viability at 30 µM in data set [2] turned out to be 98.3%; in data set [5], 89.1%. Further, the CC50 in data set [3] and in data set [4] was above 30 µM throughout.
Consider `CCC[C@H](CC)Oc1ccc(C(=O)N[C@H](C(=O)N2C[C@H](O)C[C@H]2C(=O)NCc2ccc(-c3scnc3C)cc2)C(C)(C)C)cc1NC(=O)c1nnn(-c2cc(OC)ccc2OC)c1C`, for which the DC50 in data set [1] was above 30 µM. The viability at 30 µM was 99.9% in data set [2] and 101% in [5]. The CC50 in data set [3] and in [4] was above 30 µM throughout.
